Assay results published in paper PMC7583961, “Development and Validation of an LC-MS/MS Assay to Quantitate 2′,4′,6′-Trihydroxyacetophenone in Rat and Dog Plasma and its Application to a Pharmacokinetic Study” (Molecules, 2020).

Columns and labels:
[1] = Stability of THAP in dog plasma; format: in vitro ADME; settings: for Plasma Stability (Mean %) Long-Term (−70 °C): 32 days; for Plasma Stability (Mean %) Long-Term (−70 °C) / Plasma Stability (Mean %) 4 °C (7 h) / Plasma Stability (Mean %) Autosampler (44 h, 10 °C) / Plasma Stability (Mean %) Freeze-Thaw Stability (5 Cycles) / Plasma Stability (Mean %) Room Temperature (7 h) / Plasma Stability (Mean %) −70 °C (7 h): n = 3
Procedure: (§1) The stability of THAP in rat and dog plasma was examined under the following conditions at concentrations of 0.3, 25, and 80 µg/mL (n = 3): freeze-thaw stability after five freeze-thaw cycles at −70 °C; short-term stability at room temperature, 4 °C, and −70 °C for 7 h; autosampler stability at 10 °C for 44 h; and long-term stability at −70 °C for 56 days and 32 days in rat and dog plasma, respectively. The stability of the stock solution at low (0.3 µg/mL) and high (80 µg/mL) QC concentrations (n = 3) stored at room temperature for 7 h was also tested by comparing their peak areas to those of freshly prepared stock solutions.

[2] = Stability of THAP stock solution at room temperature; format: physicochemical; settings: room temperature 7 h, n = 3
Procedure: as §1

[3] = Pharmacokinetic study of oral THAP IR or SR tablets in dogs (LC-MS/MS of plasma, noncompartmental analysis); format: in vivo; settings: male, beagle; for AUC(0-t) / Cmax / Tmax / half-life: dog, plasma, po, 500 mg, mean ± SD, n = 5
Procedure: (§2) Healthy Sprague Dawley rats (n = 15, mean ± SD weight 261.4 ± 6.8 g) and beagle dogs (n = 10, mean ± SD weight 9.85 ± 0.60 kg) were purchased from Orient Bio Inc. (Seongnam, Korea). The animals were kept in a light-controlled room at 22 ± 2 °C with relative humidity of 55 ± 5% in the Animal Center of Korea Preclinical Center (Gyeonggi-do, Korea). The pharmacokinetic study protocols (KPC-E2019099 for rats and KPC-M2019046 for dogs) were approved by the Animal Care and Use Committee of the Korea Preclinical Center (Gyeonggi-do, Korea).
(§3) Chromatographic separation was performed using an Agilent 1200 Series HPLC (Agilent Technologies, Inc., Palo Alto, CA, USA) system with a Gemini C18 column (50 × 2.0 mm, 3 µm, Phenomenex, Torrance, CA, USA) protected by a guard column at 40 °C. The mobile phase composed of 10 mM ammonium formate in water and methanol (10:90, v/v) was isocratically pumped into the HPLC system at a flow rate of 0.2 mL/min with a total run time of 2.5 min. The column was eluted into an API 4000 triple quadrupole mass spectrometer (Applied Biosystems, Framingham, Massachusetts, USA), operating in the multiple reaction monitoring (MRM) mode with a negative ion electrospray source. The optimized instrument settings were as follows: curtain gas flow of 20 L/h; collision gas flow of 6 L/h; ion source gas 1 pressure of 50 psi; ion source gas 2 pressure of 60 psi; ion spray voltage of −4500 V; and temperature of 500 °C. The precursor ions of THAP and IS were generated using declustering potentials of −100 and −75 V, respectively, and they were fragmented at a collision energy of −28 and −24 eV, respectively. The molecular mass transitions from precursor to product ion were optimized at m/z 166.89 > 82.8 for THAP and at 152.89 > 82.8 for IS. Data were processed using Analyst® program (Ver. 1.6.2, AB SCIEX, Toronto, ON, Canada).
(§4) Plasma samples were stored in a deep freezer at −70 °C and thawed at room temperature. An aliquot of each plasma sample (10 μL) was transferred to 1.75 mL microtubes (Axygen Scientific, Inc., California, USA). In each microtube, 20 μL of IS (2 μg/mL) and 500 μL of 100% cold acetonitrile were added and then vortexed for 10 min. After centrifugation at 20,800× g for 15 min, 50 μL of the supernatant was pipetted into a 2.0 mL microtube and diluted with 350 μL of 50% acetonitrile (v/v). After being vortexed for 10 min and centrifuged at 20,800× g at 4 °C for 10 min, a 2 μL aliquot was injected into the LC-MS/MS system for quantitation.
(§5) Male rats orally received a single dose of THAP (250, 500, or 750 mg/kg) dissolved in deionized water containing 2% CMC by gavages. Serial blood samples (0.22 mL each) were collected via the right jugular vein immediately before (0 h) and at 0.5, 1, 2, 3, 4, 6, 9, 12, 24, and 48 h (n = 5 per each sample time) post-dosing. Male dogs received a single oral dose of THAP tablet (500 mg) as either an immediate-release tablet (Group 1) or a sustained-release tablet (Group 2) (Table 5). Blood samples (1.0 mL) were drawn from a median vein of a forelimb at the following time points after the administration of THAP: 0.5, 1, 1.5, 2, 3, 4, 6, 8, 12, and 24 h (n = 5 per each sample time). After sampling blood from the animals, the cannula was flushed with an equal volume of heparinized saline solution (50 U/mL) to prevent coagulation and to replace the blood loss. Heparin was used as an anticoagulant throughout the study procedure. Plasma was harvested by centrifugation at 4 °C, 1700× g for 10 min and then stored at −70 °C before quantification. Noncompartmental analysis was performed to calculate the AUClast and T1/2 of THAP using WinNonlin version 8.1 (Pharsight Corporation, Mountain View, CA). The Cmax and Tmax of THAP were determined based on the individual plasma THAP concentration–time profiles.

[4] = Pharmacokinetic study of orally administered THAP in rats (LC-MS/MS of plasma, noncompartmental analysis); format: in vivo, Sprague Dawley rats; settings: for AUC(0-t) / Cmax / Tmax / half-life: plasma, rat, mean ± SD, n = 5
Procedure: as §2, §3, §4, §5

[5] = Stability of THAP in rat plasma; format: in vitro ADME; settings: for Plasma Stability (Mean %) Long-Term (−70 °C): 56 days; for Plasma Stability (Mean %) Long-Term (−70 °C) / Plasma Stability (Mean %) 4 °C (7 h) / Plasma Stability (Mean %) Autosampler (44 h, 10 °C) / Plasma Stability (Mean %) Freeze-Thaw Stability (5 Cycles) / Plasma Stability (Mean %) Room Temperature (7 h) / Plasma Stability (Mean %) −70 °C (7 h): n = 3
Procedure: as §1

[6] = range over 0.3, 25 and 80 µg/mL
[7] = oral 500 mg THAP immediate-release tablet (Group 1)
[8] = oral 500 mg THAP sustained-release tablet (Group 2)
[9] = male, Sprague Dawley, oral 250 mg/kg aqueous solution (Group 1)
[10] = male, Sprague Dawley, oral 500 mg/kg aqueous solution (Group 2)
[11] = male, Sprague Dawley, oral 750 mg/kg aqueous solution (Group 3)

With `CC(=O)c1c(O)cc(O)cc1O` [THAP, 2′,4′,6′-trihydroxyacetophenone] the “Plasma Stability (Mean %) Long-Term (−70 °C)” value ([1]; nominal 0.3 µg/mL) was 102.89%, the “Plasma Stability (Mean %) 4 °C (7 h)” value ([1]; nominal 0.3 µg/mL) was 111.89% and the “Plasma Stability (Mean %) Autosampler (44 h, 10 °C)” value ([1]; nominal 0.3 µg/mL) was 99.67%. The “Plasma Stability (Mean %) Freeze-Thaw Stability (5 Cycles)” value ([1]; nominal 0.3 µg/mL) was 101.33%, the “Plasma Stability (Mean %) Room Temperature (7 h)” value ([1]; nominal 0.3 µg/mL) was 109.89% and the “Plasma Stability (Mean %) −70 °C (7 h)” value ([1]; nominal 0.3 µg/mL) was 109.56%. For the same compound, the “Plasma Stability (Mean %) Long-Term (−70 °C)” value ([1]; nominal 25 µg/mL) was 103.95%, the “Plasma Stability (Mean %) 4 °C (7 h)” value ([1]; nominal 25 µg/mL) was 105.57% and the “Plasma Stability (Mean %) Autosampler (44 h, 10 °C)” value ([1]; nominal 25 µg/mL) was 106.75%. For the same compound, the “Plasma Stability (Mean %) Freeze-Thaw Stability (5 Cycles)” value ([1]; nominal 25 µg/mL) was 105.31%, the “Plasma Stability (Mean %) Room Temperature (7 h)” value ([1]; nominal 25 µg/mL) was 106.66% and the “Plasma Stability (Mean %) −70 °C (7 h)” value ([1]; nominal 25 µg/mL) was 105.88%. For the same compound, the “Plasma Stability (Mean %) Long-Term (−70 °C)” value ([1]; nominal 80 µg/mL) was 99.45%, the “Plasma Stability (Mean %) 4 °C (7 h)” value ([1]; nominal 80 µg/mL) was 98.87% and the “Plasma Stability (Mean %) Autosampler (44 h, 10 °C)” value ([1]; nominal 80 µg/mL) was 97.58%. For the same compound, the “Plasma Stability (Mean %) Freeze-Thaw Stability (5 Cycles)” value ([1]; nominal 80 µg/mL) was 98.41%, the “Plasma Stability (Mean %) Room Temperature (7 h)” value ([1]; nominal 80 µg/mL) was 98.17% and the “Plasma Stability (Mean %) −70 °C (7 h)” value ([1]; nominal 80 µg/mL) was 97.32%. For the same compound, the “long-term stability at −70 °C for 32 days” value [1, 6] was 99.45–103.95%, the “stability in the autosampler at 10 °C for 44 h” value [1, 6] was 97.58–106.75% and the “stability over five freeze-thaw cycles” value [1, 6] was 98.41–105.31%. For the same compound, the “mean percentage peak area of stock solution vs freshly prepared stock solution” value ([2]; 0.3 µg/mL) was 102.15%, the “mean percentage peak area of stock solution vs freshly prepared stock solution” value ([2]; 80 µg/mL) was 100.92% and the AUC(0-t) [3, 7] was 89.9 ± 32.8 µg·h/mL. It also gave a Cmax [3, 7] of 24500 ± 5000 ng/mL, a Tmax [3, 7] of 1 ± 1.1 h and a half-life [3, 7] of 6.1 ± 4.6 h. For the same compound, the AUC(0-t) [3, 8] was 130 ± 49.4 µg·h/mL, the Cmax [3, 8] was 18800 ± 8500 ng/mL and the Tmax [3, 8] was 6 ± 1.6 h. The half-life [3, 8] was 6.4 ± 1.6 h, the concentration at 24 h ([3]; dog plasma sample of R05, 24 h after oral administration of THAP 500 mg immediate-release tablet, read-out: measured plasma concentration of THAP) was 302 ng/mL and the AUC(0-t) [4, 9] was 80.9 ± 11.8 µg·h/mL. The Cmax [4, 9] was 64200 ± 16300 ng/mL, the Tmax [4, 9] was 0.5 h and the half-life [4, 9] was 11.3 ± 0.9 h. For the same compound, the AUC(0-t) [4, 10] was 150 ± 35.8 µg·h/mL, the Cmax [4, 10] was 81300 ± 32300 ng/mL and the Tmax [4, 10] was 0.5 h. For the same compound, the half-life [4, 10] was 8.3 ± 1.2 h, the AUC(0-t) [4, 11] was 302 ± 113 µg·h/mL and the Cmax [4, 11] was 147000 ± 44600 ng/mL. It also gave a Tmax [4, 11] of 0.5 h, a half-life [4, 11] of 8 ± 1.5 h and a concentration at 12 h ([4]; male, Sprague Dawley, rat plasma sample of R06, 12 h after oral administration of THAP 500 mg/kg, read-out: measured plasma concentration of THAP) of 374 ng/mL. The “plasma THAP concentrations close to the peak concentration” value ([4]; rats, THAP dose of 500 mg/kg and 750 mg/kg, above ULOQ) was “greater than 100 µg/mL”, the “Plasma Stability (Mean %) Long-Term (−70 °C)” value ([5]; nominal 0.3 µg/mL) was 111.67% and the “Plasma Stability (Mean %) 4 °C (7 h)” value ([5]; nominal 0.3 µg/mL) was 99.22%. The “Plasma Stability (Mean %) Autosampler (44 h, 10 °C)” value ([5]; nominal 0.3 µg/mL) was 105.00%, the “Plasma Stability (Mean %) Freeze-Thaw Stability (5 Cycles)” value ([5]; nominal 0.3 µg/mL) was 101.00% and the “Plasma Stability (Mean %) Room Temperature (7 h)” value ([5]; nominal 0.3 µg/mL) was 98.22%. The “Plasma Stability (Mean %) −70 °C (7 h)” value ([5]; nominal 0.3 µg/mL) was 98.11%, the “Plasma Stability (Mean %) Long-Term (−70 °C)” value ([5]; nominal 25 µg/mL) was 104.15% and the “Plasma Stability (Mean %) 4 °C (7 h)” value ([5]; nominal 25 µg/mL) was 106.91%. The “Plasma Stability (Mean %) Autosampler (44 h, 10 °C)” value ([5]; nominal 25 µg/mL) was 104.80%, the “Plasma Stability (Mean %) Freeze-Thaw Stability (5 Cycles)” value ([5]; nominal 25 µg/mL) was 102.84% and the “Plasma Stability (Mean %) Room Temperature (7 h)” value ([5]; nominal 25 µg/mL) was 101.62%. For the same compound, the “Plasma Stability (Mean %) −70 °C (7 h)” value ([5]; nominal 25 µg/mL) was 109.87%, the “Plasma Stability (Mean %) Long-Term (−70 °C)” value ([5]; nominal 80 µg/mL) was 99.39% and the “Plasma Stability (Mean %) 4 °C (7 h)” value ([5]; nominal 80 µg/mL) was 100.98%. For the same compound, the “Plasma Stability (Mean %) Autosampler (44 h, 10 °C)” value ([5]; nominal 80 µg/mL) was 100.58%, the “Plasma Stability (Mean %) Freeze-Thaw Stability (5 Cycles)” value ([5]; nominal 80 µg/mL) was 99.62% and the “Plasma Stability (Mean %) Room Temperature (7 h)” value ([5]; nominal 80 µg/mL) was 100.47%. The “Plasma Stability (Mean %) −70 °C (7 h)” value ([5]; nominal 80 µg/mL) was 101.61%, the “long-term stability at −70 °C for 56 days” value [5, 6] was 99.39–111.67% and the “stability in the autosampler at 10 °C for 44 h” value [5, 6] was 100.58–105.00%. The “stability over five freeze-thaw cycles” value [5, 6] was 99.62–102.84%.
